{"source": "patent US4312861A", "about": "“Pharmaceutical compositions containing N-alkyl-N-(nuclearly-substituted) benzylamines having vasotonia-regulating activity” (Hoechst Aktiengesellschaft, priority 1974, dated 1982)", "key": {"[1]": {"system": "isolated guinea-pig heart", "assay": "Relative coronary blood-flow change in isolated guinea-pig heart (Langendorff)", "procedure": "(4) Relative coronary blood-flow change in an isolated guinea-pig heart.\nThe tests were carried out according to the method of Langendorff (Pflugers Archiv. 61 (1895), page 219).\nIn Table 5, the change in coronary blood flow after administration of various quantities of the test substance is compared with that after administration of the known compounds heptaminol and Aescin sodium salt."}, "[2]": {"assay": "Toxicity in the mouse (Litchfield and Wilcoxon)", "type": "in vivo", "details": "mouse, in vivo", "procedure": "(6) Toxicity in the mouse\nToxicity was determined according to Litchfield and Wilcoxon (J. Pharmacol. exp. Ther. 97 (1949), page 399) in the mouse. In comparison, the values with the known substance aescin sodium salt were determined. Comparative tests with 0.1% solution, of venous and optical compatibility on the rabbit yielded similar results."}, "[3]": {"system": "perfused rabbit ear", "assay": "Blood-flow change in perfused isolated rabbit ear, vaso-dilator activity (Ringer-Norfenefrin solution)", "procedure": "(3) Blood-flow change in an isolated rabbit ear\nThe tests were carried out according to Krakow-Pissemski (Pflugers Archiv 151 (1913), page 583 and 156 (1914), page 426). In Table 5a the estimated values of the vaso-constrictor activity in Ringer solutions of varying concentrations are given and in Table 5b values for vasodilatory activity in Ringer-Norfenefrin solutions of varying concentrations are given. As a comparison, the values obtained with the known preparation aescin sodium are given."}, "[4]": {"system": "permeability of the capillaries", "assay": "Histamine rash test (modified Halpern), capillary permeability", "type": "in vivo", "details": "30 minutes before histamine", "procedure": "The test according to Halpern (Presse medicale 65 (1949), page 949) was used in modified form. The suppressive effect of the compounds according to the invention on the permeability of the capillaries was tested. The blue coloration induced by intravenous administration of trypan blue at two intracutaneous histamine injection points per animal, (trypan blue administered 2 minutes before the histamine), was estimated according to the following scale of values:\nindications of blue coloration\nclear blue coloration =4\nstong blue coloration =6\nThe preceding evaluation was made from the combined effect at the two injection points.\nThe test substances were administered i.p. 30 minutes before the histamine injection."}, "[5]": {"system": "writhing movements in the mouse", "assay": "Writhing test (Winter)", "type": "in vivo", "excerpt": "The analgesic activity of the compounds according to the invention were studied by the method of Winter et al (Proc. Soc. exp. Biol. Med, 111 (1962), page 544), in which the suppression of writhing movements in the mouse was observed."}, "[6]": {"system": "isolated portal vein", "assay": "Isolated rat's portal vein (Berti), increase in tonus", "procedure": "(2) Isolated rat's portal vein\nThe tests on the rat's portal vein, an organ with its own rhythm, were performed according to the method of Berti et al (Arch. int. Pharmacodyn. 184 (1970), page 328). In Table 4, the increase in tonus at various adrenalin concentrations is given in milligrams. As a comparison, the values for the known substance heptaminol (=6-amino-2-methylheptane-2-ol) are also given."}, "[7]": {"system": "carrageenin oedema in the rat paw", "assay": "Suppression of carrageenin oedema in the rat paw (Siegmund)", "type": "in vivo", "details": "3 h p.a.", "procedure": "(7) Suppression of carrageenin oedema in the rat paw\nThe inflammation-reducing and anti-oedematous effects on carrageenin and serotonin oedemas in the rat paw were studied according to Siegmund et al (Proc. Soc. exp. Biol. Med. 95 (1957), page 729). The values are given as percentages, based on the values obtained in control tests using a dummy procedure. In this way, the antiphlogistic activity of the substances according to the invention was tested."}, "[8]": {"details": "10 μg (first figure where two are given)"}, "[9]": {"details": "30 μg (first figure where two are given)"}}, "data": [{"smiles": "CCCCCC(C)NCc1c(C)c(C)cc(C)c1C", "note": "(centres unmarked) [compound 1]", "values": [{"measurement": "Relative change in coronary blood flow, second figure after slash", "setting": "[1]; 10 μg", "value": -14}, {"measurement": "Relative change in coronary blood flow", "setting": "[1]; [8]", "value": "+53"}, {"measurement": "Relative change in coronary blood flow, second figure after slash", "setting": "[1]; 30 μg", "value": -11}, {"measurement": "Relative change in coronary blood flow", "setting": "[1]; [9]", "value": "+130"}, {"measurement": "LD50", "setting": "[2]; ip", "value": "50 to 100", "unit": "mg/kg"}]}, {"smiles": "CCCCC(C)NCc1c(C)cc(C)cc1C", "note": "(centres unmarked) [compound 25]", "values": [{"measurement": "Relative change in blood flow, vaso-dilator activity", "setting": "[3]; 3 × 10^-6 g/ml", "value": "+39"}, {"measurement": "Relative change in blood flow, vaso-dilator activity", "setting": "[3]; 10^-4 g/ml", "value": "+147"}, {"measurement": "Relative change in blood flow, vaso-dilator activity", "setting": "[3]; 10^-5 g/ml", "value": "+93"}, {"measurement": "Relative change in blood flow, vaso-dilator activity", "setting": "[3]; 10^-6 g/ml", "value": "+1"}, {"measurement": "Relative change in blood flow, vaso-dilator activity", "setting": "[3]; 10^-7 g/ml", "value": "+3"}, {"measurement": "Histamine rash test, blue coloration score (0 = none, 2 = indications, 4 = clear, 6 = strong)", "setting": "[4]; 3.0 mg/kg i.p.", "value": 1.3}, {"measurement": "Histamine rash test, blue coloration score (0 = none, 2 = indications, 4 = clear, 6 = strong)", "setting": "[4]; 10.0 mg/kg i.p.", "value": 1.4}, {"measurement": "LD50", "setting": "[2]; ip", "value": "50 to 100", "unit": "mg/kg"}, {"measurement": "Suppression of writhing movements", "setting": "[5]; 50 mg/kg p.o.", "value": 46, "unit": "%"}]}, {"smiles": "CCC(C)CC(C)NCc1c(C)cc(C)cc1C", "note": "(centres unmarked) [compound 28]", "values": [{"measurement": "Increase in tonus, isolated rat's portal vein", "setting": "[6]; 10^-4 g/ml", "value": "+84 milligrams"}, {"measurement": "Increase in tonus, isolated rat's portal vein", "setting": "[6]; 10^-5 g/ml", "value": "+57 milligrams"}, {"measurement": "Increase in tonus, isolated rat's portal vein", "setting": "[6]; 10^-6 g/ml", "value": "+21 milligrams"}, {"measurement": "Relative change in blood flow, vaso-dilator activity", "setting": "[3]; 3 × 10^-5 g/ml", "value": "+47"}, {"measurement": "Relative change in coronary blood flow", "setting": "[1]; [9]", "value": "+118"}, {"measurement": "Relative change in coronary blood flow", "setting": "[1]; 100 μg (first figure where two are given)", "value": "+226"}, {"measurement": "Histamine rash test, blue coloration score (0 = none, 2 = indications, 4 = clear, 6 = strong)", "setting": "[4]; 3.0 mg/kg i.p.", "value": 2.9}, {"measurement": "LD50", "setting": "[2]; ip", "value": "50 to 100", "unit": "mg/kg"}]}, {"smiles": "CCCCCC(C)NCc1ccc(F)cc1", "note": "(centres unmarked) [compound 7]", "values": [{"measurement": "Relative change in blood flow, vaso-dilator activity", "setting": "[3]; 3 × 10^-5 g/ml", "value": "+34"}, {"measurement": "LD50", "setting": "[2]; ip", "value": "100 to 250", "unit": "mg/kg"}, {"measurement": "Suppression of carrageenin oedema in the paw (antiphlogistic activity)", "setting": "[7]; 25 mg/kg p.o.", "value": 53, "unit": "%"}, {"measurement": "Suppression of carrageenin oedema in the paw (antiphlogistic activity)", "setting": "[7]; 63 mg/kg p.o.", "value": 71, "unit": "%"}, {"measurement": "Suppression of writhing movements", "setting": "[5]; 40 mg/kg p.o.", "value": 46, "unit": "%"}, {"measurement": "Suppression of writhing movements", "setting": "[5]; 63 mg/kg p.o.", "value": 67, "unit": "%"}, {"measurement": "Suppression of writhing movements", "setting": "[5]; 100 mg/kg p.o.", "value": 77, "unit": "%"}]}, {"smiles": "CCCC(C)NCc1c(C)cc(C)cc1C", "note": "(centres unmarked) [compound 24]", "values": [{"measurement": "LD50", "setting": "[2]; ip", "value": "50 to 100", "unit": "mg/kg"}]}, {"smiles": "Cc1cc(C)c(CNCCCC(C)C)c(C)c1", "note": "[compound 19]", "values": [{"measurement": "Relative change in coronary blood flow, second figure after slash", "setting": "[1]; 10 μg", "value": -15}, {"measurement": "Relative change in coronary blood flow", "setting": "[1]; [8]", "value": "+30"}, {"measurement": "Relative change in coronary blood flow, second figure after slash", "setting": "[1]; 30 μg", "value": -10}, {"measurement": "Relative change in coronary blood flow", "setting": "[1]; [9]", "value": "+71"}, {"measurement": "LD50", "setting": "[2]; ip", "value": "100 to 250", "unit": "mg/kg"}]}, {"smiles": "Cc1cc(C)c(CNC(C)CCCC(C)(C)O)c(C)c1", "note": "(centres unmarked) [compound 31]", "values": [{"measurement": "Relative change in blood flow, vaso-dilator activity", "setting": "[3]; 10^-4 g/ml", "value": "+87"}, {"measurement": "Relative change in blood flow, vaso-dilator activity", "setting": "[3]; 10^-5 g/ml", "value": "+41"}, {"measurement": "Relative change in blood flow, vaso-dilator activity", "setting": "[3]; 10^-6 g/ml", "value": "+12"}, {"measurement": "Histamine rash test, blue coloration score (0 = none, 2 = indications, 4 = clear, 6 = strong)", "setting": "[4]; 10.0 mg/kg i.p.", "value": 2.6}, {"measurement": "LD50", "setting": "[2]; iv", "value": "50 to 100", "unit": "mg/kg"}, {"measurement": "Suppression of carrageenin oedema in the paw (antiphlogistic activity)", "setting": "[7]; 200 mg/kg p.o.", "value": 26, "unit": "%"}]}, {"smiles": "CCCCCC(C)NCc1ccccc1Br", "note": "(centres unmarked) [compound 12]", "values": [{"measurement": "Relative change in blood flow, vaso-dilator activity", "setting": "[3]; 3 × 10^-5 g/ml", "value": "+12"}, {"measurement": "LD50", "setting": "[2]; ip", "value": "100 to 250", "unit": "mg/kg"}]}, {"smiles": "CCCCCC(C)NCc1ccccc1Cl", "note": "(centres unmarked) [compound 9]", "values": [{"measurement": "LD50", "setting": "[2]; ip", "value": "100 to 250", "unit": "mg/kg"}]}, {"smiles": "CCCCCNCc1c(C)cc(C)cc1C", "note": "[compound 14]", "values": [{"measurement": "LD50", "setting": "[2]; ip", "value": "50 to 100", "unit": "mg/kg"}]}, {"smiles": "CCCCCCCCNCc1c(C)cc(C)cc1C", "note": "[compound 17]", "values": [{"measurement": "Relative change in coronary blood flow", "setting": "[1]; [9]", "value": "+138"}, {"measurement": "LD50", "setting": "[2]; ip", "value": "25 to 50", "unit": "mg/kg"}]}, {"smiles": "Cc1cc(C)c(CNC(C)CCCC(C)C)c(C)c1", "note": "(centres unmarked) [compound 29]", "values": [{"measurement": "Relative change in blood flow, vaso-dilator activity", "setting": "[3]; 3 × 10^-5 g/ml", "value": "+19"}, {"measurement": "Relative change in coronary blood flow", "setting": "[1]; [9]", "value": "+111"}, {"measurement": "Histamine rash test, blue coloration score (0 = none, 2 = indications, 4 = clear, 6 = strong)", "setting": "[4]; 1.0 mg/kg i.p.", "value": 3.3}, {"measurement": "Histamine rash test, blue coloration score (0 = none, 2 = indications, 4 = clear, 6 = strong)", "setting": "[4]; 3.0 mg/kg i.p.", "value": 1.7}, {"measurement": "LD50", "setting": "[2]; ip", "value": "50 to 100", "unit": "mg/kg"}]}, {"smiles": "CCCCCC(C)NCc1ccc([N+](=O)[O-])cc1", "note": "(centres unmarked) [compound 13]", "values": [{"measurement": "LD50", "setting": "[2]; ip", "value": "100 to 250", "unit": "mg/kg"}, {"measurement": "Suppression of carrageenin oedema in the paw (antiphlogistic activity)", "setting": "[7]; 63 mg/kg p.o.", "value": 17, "unit": "%"}, {"measurement": "Suppression of carrageenin oedema in the paw (antiphlogistic activity)", "setting": "[7]; 100 mg/kg p.o.", "value": 59, "unit": "%"}]}, {"smiles": "Cc1cc(C)c(CNCCCOC(C)C)c(C)c1", "note": "[compound 23]", "values": [{"measurement": "LD50", "setting": "[2]; ip", "value": "100 to 250", "unit": "mg/kg"}]}]}
